Data on one compound can be found in patent US20170152239A1, “BENZAMIDE AND HETEROBENZAMIDE COMPOUNDS” (PFIZER INC., priority 2012, published 2017).

What all share (format): biochemical
The target in assay [1] is WT EZH2 (EZH2 4 protein complex: EZH2, EED, SUZ12, RbAp48) (Homo sapiens, UniProt O75530+Q09028+Q15022+Q15910). In words: WT EZH2 nucleosome assay. The settings on record: nucleosome assay, 5 nM EZH2 4-protein complex, 1.5 μM SAM; read-out: WT EZH2 IC50. In short, it runs like this: (§1)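 Radiometric methyltransferase assay: 5 nM EZH2 four-protein complex, 1.5 μM 3H-SAM, 25 μg/mL HeLa oligonucleosomes, 50 nM recombinant H1 in 100 mM Tris pH 8.5, 4 mM DTT, 0.01% Tween-20. 60 min reaction, TCA quench, filter capture, scintillation counting; IC50 from 11-point 4-parameter fit; % effect at 20 μM.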
Sequence of WT EZH2 (EZH2 4 protein complex: EZH2, EED, SUZ12, RbAp48) (Homo sapiens, UniProt O75530+Q09028+Q15022+Q15910) (Q15910 whole entry): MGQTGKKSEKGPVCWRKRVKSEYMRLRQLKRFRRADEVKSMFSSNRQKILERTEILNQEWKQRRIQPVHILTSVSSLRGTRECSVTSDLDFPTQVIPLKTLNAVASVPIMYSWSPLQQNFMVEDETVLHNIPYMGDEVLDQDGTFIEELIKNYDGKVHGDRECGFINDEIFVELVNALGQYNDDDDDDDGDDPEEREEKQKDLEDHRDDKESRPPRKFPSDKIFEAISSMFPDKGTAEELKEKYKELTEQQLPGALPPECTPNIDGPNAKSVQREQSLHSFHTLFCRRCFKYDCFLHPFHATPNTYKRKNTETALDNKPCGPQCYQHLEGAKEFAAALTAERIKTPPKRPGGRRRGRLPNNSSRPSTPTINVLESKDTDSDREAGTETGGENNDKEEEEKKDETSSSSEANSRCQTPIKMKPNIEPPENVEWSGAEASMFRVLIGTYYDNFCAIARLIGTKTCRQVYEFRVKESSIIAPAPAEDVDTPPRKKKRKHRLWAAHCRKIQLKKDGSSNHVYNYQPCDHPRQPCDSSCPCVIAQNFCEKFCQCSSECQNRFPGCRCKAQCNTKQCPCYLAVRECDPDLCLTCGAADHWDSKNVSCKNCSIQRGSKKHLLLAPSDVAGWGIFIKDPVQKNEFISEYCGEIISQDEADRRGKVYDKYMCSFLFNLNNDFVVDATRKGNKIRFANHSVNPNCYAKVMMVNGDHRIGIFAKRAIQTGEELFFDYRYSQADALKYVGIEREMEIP
Sequence of WT EZH2 (EZH2 4 protein complex: EZH2, EED, SUZ12, RbAp48) (Homo sapiens, UniProt O75530+Q09028+Q15022+Q15910) (O75530 whole entry partner): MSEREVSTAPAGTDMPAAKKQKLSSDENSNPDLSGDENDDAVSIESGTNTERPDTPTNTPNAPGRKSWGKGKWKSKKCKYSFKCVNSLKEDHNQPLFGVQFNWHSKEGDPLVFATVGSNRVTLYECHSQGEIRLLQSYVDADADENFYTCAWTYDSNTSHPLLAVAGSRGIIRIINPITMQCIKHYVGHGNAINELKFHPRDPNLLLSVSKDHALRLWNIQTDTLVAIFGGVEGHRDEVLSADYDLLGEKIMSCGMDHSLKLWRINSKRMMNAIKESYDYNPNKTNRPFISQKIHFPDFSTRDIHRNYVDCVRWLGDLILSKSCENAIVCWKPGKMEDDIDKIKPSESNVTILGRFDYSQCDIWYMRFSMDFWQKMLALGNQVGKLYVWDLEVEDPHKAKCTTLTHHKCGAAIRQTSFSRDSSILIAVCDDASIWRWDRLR
Sequence of WT EZH2 (EZH2 4 protein complex: EZH2, EED, SUZ12, RbAp48) (Homo sapiens, UniProt O75530+Q09028+Q15022+Q15910) (Q15022 whole entry partner): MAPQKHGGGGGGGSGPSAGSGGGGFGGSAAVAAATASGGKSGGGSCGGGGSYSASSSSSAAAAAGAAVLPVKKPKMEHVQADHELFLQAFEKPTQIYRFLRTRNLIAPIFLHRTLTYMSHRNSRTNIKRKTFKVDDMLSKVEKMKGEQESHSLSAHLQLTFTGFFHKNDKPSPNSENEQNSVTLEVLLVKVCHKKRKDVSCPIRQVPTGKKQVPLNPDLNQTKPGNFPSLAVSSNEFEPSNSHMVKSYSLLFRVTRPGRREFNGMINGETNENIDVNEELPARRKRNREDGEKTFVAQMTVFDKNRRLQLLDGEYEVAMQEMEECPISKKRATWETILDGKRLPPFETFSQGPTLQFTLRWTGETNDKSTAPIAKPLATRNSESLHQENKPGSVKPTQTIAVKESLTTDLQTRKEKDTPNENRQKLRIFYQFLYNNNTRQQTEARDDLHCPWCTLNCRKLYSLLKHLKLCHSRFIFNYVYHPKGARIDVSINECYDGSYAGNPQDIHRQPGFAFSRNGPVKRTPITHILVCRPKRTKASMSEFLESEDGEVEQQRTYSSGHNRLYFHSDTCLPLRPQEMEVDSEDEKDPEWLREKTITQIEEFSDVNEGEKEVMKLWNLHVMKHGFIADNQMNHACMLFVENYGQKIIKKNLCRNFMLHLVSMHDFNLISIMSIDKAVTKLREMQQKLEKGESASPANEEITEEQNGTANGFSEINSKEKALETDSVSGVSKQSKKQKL
Sequence of WT EZH2 (EZH2 4 protein complex: EZH2, EED, SUZ12, RbAp48) (Homo sapiens, UniProt O75530+Q09028+Q15022+Q15910) (Q09028 whole entry partner): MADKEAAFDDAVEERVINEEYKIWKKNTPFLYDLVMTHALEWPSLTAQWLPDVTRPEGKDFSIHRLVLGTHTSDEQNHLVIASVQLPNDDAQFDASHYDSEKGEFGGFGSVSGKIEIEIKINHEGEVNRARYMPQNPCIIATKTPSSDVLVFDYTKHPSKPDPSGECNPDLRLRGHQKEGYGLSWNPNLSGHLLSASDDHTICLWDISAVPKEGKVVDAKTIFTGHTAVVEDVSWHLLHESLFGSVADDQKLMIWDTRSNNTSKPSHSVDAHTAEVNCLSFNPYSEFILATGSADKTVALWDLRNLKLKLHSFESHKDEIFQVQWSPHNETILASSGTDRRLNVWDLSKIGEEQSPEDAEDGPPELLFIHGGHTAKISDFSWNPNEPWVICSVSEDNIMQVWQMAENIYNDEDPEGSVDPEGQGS

Assay [2] has as its target WT EZH2 (EZH2 4 protein complex: EZH2, EED, SUZ12, RbAp48) (Homo sapiens, UniProt Q15910). In words: WT EZH2 nucleosome assay. The settings on record: compound at 20 μM; nucleosome assay. In a few lines:
as §1

The target of another assay is EZH2PRC2 mutant Y641N (Homo sapiens, UniProt Q15910, Y641N). In words: EZH2PRC2 mutant Y641N nucleosome assay. The note with it: read-out: EZH2PCR2 Mutant Y641N IC50. The method, then: Nucleosome Assay Protocol:
A. Compound preparation • 1. Prepare 10 mM stock solutions in 100% DMSO from solid material • 2. Serial dilute 10 mM compound stocks either 2 or 3-fold in 100% DMSO to generate compounds for 11 point dose response
B. Reagent preparation • 1. Prepare 1× assay buffer containing 100 mM Tris pH 8.5, 4 mM DTT and 0.01% Tween-20 • 2. Dilute purified HeLA oligonucleosomes and recombinant histone H1 (New England Biolabs) in assay buffer to 1.67×. • 3. Dilute EZH2 4 protein complex (EZH2, EED, SUZ12, RbAp48) to 3.5× in assay buffer • 4. Prepare 10×^3H SAM solution in assay buffer using 0.94 μCi/well of radioactive SAM (Perkin Elmer) and sufficient non-labeled SAM (Sigma) for 1.5 μM final concentration. • 5. Dilute TCA to 20% in DI water
C. Enzyme reaction • 1. Final reaction conditions are 5 nM EZH2 4-protein complex, 1.5 μM SAM, 25 μg/mL oligonucleosomes, 50 nM rH1 in a 50 μl reaction volume. • 2. Add 1 μl of diluted compound to the assay plate (96-well V-bottom polypropylene plates) or 1 μl of DMSO for control wells. • 3. Add 30 μl of nucleosomes to the assay plate • 4. Add 14 μl of EZH2 4 protein complex to the assay plate • 5. Add 5 μl of ^3H SAM to start the reaction. • 6. Stop the reaction after 60 minutes with the addition of 100 μl of 20% TCA • 7. Transfer 150 μl of quenched reaction into a prepared filterplate (Millipore #MSIPN4B10) • 8. Apply vacuum to the filterplate to filter the reaction mix through the membrane. • 9. Wash the filterplate with 8×200 μl of PBS, blot dry and dry in an oven for 30 minutes • 10. Add 50 μl of microscint-20 scintillation fluid (Perkin Elmer) to each well, wait 30 minutes and count on a liquid scintillation counter.
D. Data analysis • 1. IC50 values were determined by fitting the data to a 4-parameter IC50 equation using proprietary curve fitting software.
Wild type (WT) EZH2% Effect at 20 μM and IC50 values (μM) generated in WT EZH2 or EZH2PRC2 mutant Y641N nucleosome assays are provided in Table 3 below. A blank entry in the table indicates the data was not generated in that assay.

Sequence of EZH2PRC2 mutant Y641N (Q15910 whole entry Y641N): as the sequence (Q15910 whole entry) above, with Y641N counted along it
Sequence of EZH2PRC2 mutant Y641N (O75530 whole entry partner): as the sequence (O75530 whole entry partner) above
Sequence of EZH2PRC2 mutant Y641N (Q15022 whole entry partner): as the sequence (Q15022 whole entry partner) above
Sequence of EZH2PRC2 mutant Y641N (Q09028 whole entry partner): as the sequence (Q09028 whole entry partner) above
Sequence of WT EZH2 (EZH2 4 protein complex: EZH2, EED, SUZ12, RbAp48) (Homo sapiens, UniProt Q15910) (Q15910 whole entry): as the sequence (Q15910 whole entry) above
Sequence of WT EZH2 (EZH2 4 protein complex: EZH2, EED, SUZ12, RbAp48) (Homo sapiens, UniProt Q15910) (O75530 whole entry partner): as the sequence (O75530 whole entry partner) above
Sequence of WT EZH2 (EZH2 4 protein complex: EZH2, EED, SUZ12, RbAp48) (Homo sapiens, UniProt Q15910) (Q15022 whole entry partner): as the sequence (Q15022 whole entry partner) above
Sequence of WT EZH2 (EZH2 4 protein complex: EZH2, EED, SUZ12, RbAp48) (Homo sapiens, UniProt Q15910) (Q09028 whole entry partner): as the sequence (Q09028 whole entry partner) above

The IC50 is the point on the concentration scale where inhibition reaches its midpoint. As to `Cc1cc(C)c(CNC(=O)c2cccc(OC(C)C)c2C)c(=O)[nH]1` [Example 32, N-((4,6-dimethyl-2-oxo-1,2-dihydropyridin-3-yl)methyl)-3-isopropoxy-2-methylbenzamide], the IC50 in assay [1] was found to be 0.87 µM; on EZH2PRC2 mutant Y641N, 11.2 µM. The “% Effect in WT EZH2 at 20 μM” value in assay [2] was determined as 83.654%.
